Laboratory results: US8541418B2, “Inhibitors of polo-like kinase” (Elan Pharmaceutical, Inc., priority 2009, dated 2013)

Columns and labels:
Type in all cases: biochemical
[1] = target: PLK2 (Homo sapiens, UniProt Q9NYY3); test: PLK TR-FRET peptide assay, PLK2; conditions: for IC50: PLK TR-FRET peptide assay, GST-PLK2, 60 min reaction, read-out: Plk2 IC50; for relative PLK2 activity of the enantiomers: compared with the opposite enantiomer
[2] = target: PLK3 (Homo sapiens, UniProt Q9H4B4); test: PLK TR-FRET peptide assay, PLK3; conditions: GST-PLK3, 15 min reaction, read-out: Plk3 IC50
Chain of PLK3 (Q9H4B4 whole entry): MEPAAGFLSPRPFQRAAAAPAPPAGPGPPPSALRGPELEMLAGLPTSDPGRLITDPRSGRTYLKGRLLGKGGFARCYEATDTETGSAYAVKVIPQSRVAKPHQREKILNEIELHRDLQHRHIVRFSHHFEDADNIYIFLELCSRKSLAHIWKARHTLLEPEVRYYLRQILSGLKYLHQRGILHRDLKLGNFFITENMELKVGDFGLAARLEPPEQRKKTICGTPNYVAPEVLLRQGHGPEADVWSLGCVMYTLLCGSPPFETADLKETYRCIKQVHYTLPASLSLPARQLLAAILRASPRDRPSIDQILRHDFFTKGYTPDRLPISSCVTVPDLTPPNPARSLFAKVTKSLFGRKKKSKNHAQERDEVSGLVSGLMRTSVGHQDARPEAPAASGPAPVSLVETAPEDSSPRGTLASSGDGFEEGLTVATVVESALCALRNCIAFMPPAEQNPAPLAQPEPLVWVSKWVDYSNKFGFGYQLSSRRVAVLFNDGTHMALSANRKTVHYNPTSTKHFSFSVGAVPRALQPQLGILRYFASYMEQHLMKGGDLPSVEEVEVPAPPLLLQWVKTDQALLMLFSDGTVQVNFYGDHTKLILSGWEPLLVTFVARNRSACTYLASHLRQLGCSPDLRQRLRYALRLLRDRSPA

[3] = target: PLK1 (Homo sapiens, UniProt P53350); test: PLK TR-FRET peptide assay, PLK1; conditions: GST-PLK1, 60 min reaction
Chain of PLK1 (P53350 whole entry): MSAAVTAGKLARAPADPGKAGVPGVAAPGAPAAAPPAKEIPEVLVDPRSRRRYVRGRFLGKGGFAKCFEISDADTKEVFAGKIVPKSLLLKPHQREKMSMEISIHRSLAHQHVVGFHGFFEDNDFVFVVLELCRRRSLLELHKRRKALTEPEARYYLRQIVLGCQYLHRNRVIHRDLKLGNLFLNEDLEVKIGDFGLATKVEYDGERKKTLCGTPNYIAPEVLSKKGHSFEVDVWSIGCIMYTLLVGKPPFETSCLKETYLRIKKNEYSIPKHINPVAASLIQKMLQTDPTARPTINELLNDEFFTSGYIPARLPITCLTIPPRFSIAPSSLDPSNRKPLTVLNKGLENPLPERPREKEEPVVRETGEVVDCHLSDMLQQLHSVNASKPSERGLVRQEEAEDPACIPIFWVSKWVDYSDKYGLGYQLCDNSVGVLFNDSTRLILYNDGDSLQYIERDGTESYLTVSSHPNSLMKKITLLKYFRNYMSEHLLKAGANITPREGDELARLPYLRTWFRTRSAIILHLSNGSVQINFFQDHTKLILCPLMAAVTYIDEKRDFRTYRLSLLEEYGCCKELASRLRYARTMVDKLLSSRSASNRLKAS

Chain of PLK2 (Q9NYY3 whole entry): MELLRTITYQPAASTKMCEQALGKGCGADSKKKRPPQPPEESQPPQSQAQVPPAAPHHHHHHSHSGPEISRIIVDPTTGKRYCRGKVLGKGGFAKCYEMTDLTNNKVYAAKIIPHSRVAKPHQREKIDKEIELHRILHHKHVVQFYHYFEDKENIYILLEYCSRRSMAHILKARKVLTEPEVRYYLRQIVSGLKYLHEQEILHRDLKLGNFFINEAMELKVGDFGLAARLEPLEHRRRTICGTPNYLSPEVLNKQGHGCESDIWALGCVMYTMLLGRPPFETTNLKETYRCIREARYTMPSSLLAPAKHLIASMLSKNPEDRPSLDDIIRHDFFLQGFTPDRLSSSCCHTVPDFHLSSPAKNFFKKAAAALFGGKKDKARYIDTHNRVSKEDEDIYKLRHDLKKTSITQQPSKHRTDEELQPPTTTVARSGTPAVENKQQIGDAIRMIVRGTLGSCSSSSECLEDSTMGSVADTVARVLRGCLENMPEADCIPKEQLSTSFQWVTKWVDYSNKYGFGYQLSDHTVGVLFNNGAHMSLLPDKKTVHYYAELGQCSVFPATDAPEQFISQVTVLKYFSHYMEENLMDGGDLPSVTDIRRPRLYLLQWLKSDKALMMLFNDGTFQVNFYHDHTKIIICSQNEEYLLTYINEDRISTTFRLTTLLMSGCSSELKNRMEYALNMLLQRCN

Row | IC50 [1] [µM] | IC50 [2] [µM] | IC50 [3] [µM] | relative PLK2 activity of the enantiomers [1] | SMILES
1 | 1 to 10 | 1 to 10 | 1 to 10 | – | CC[C@@H]1C(=O)N(C)c2cnc(-n3ncnc3-c3cccc4ncccc34)nc2N1C1CCC1 [Example 215, (R)-8-cyclobutyl-7-ethyl-5-methyl-2-(5-(quinolin-5-yl)-1H-1,2,4-triazol-1-yl)-7,8-dihydropteridin-6(5H)-one]
2 | < 1 | 10 to 50 | 10 to 50 | – | CC[C@@]12CCCN1c1nc(-n3ccnc3-c3ccc(Cl)s3)ncc1N(C)C2=O [Example 218, (S)-2-(2-(5-chlorothiophen-2-yl)-1H-imidazol-1-yl)-6a-ethyl-5-methyl-6a,7,8,9-tetrahydropyrrolo[2,1-h]pteridin-6(5H)-one]
3 | 1 to 10 | > 50 | 10 to 50 | – | CC[C@@]12CCCN1c1nc(-n3ncnc3-c3cccc4ncccc34)ncc1N(C)C2=O [Example 219, (S)-6a-ethyl-5-methyl-2-(5-(quinolin-5-yl)-1H-1,2,4-triazol-1-yl)-6a,7,8,9-tetrahydropyrrolo[2,1-h]pteridin-6(5H)-one]
4 | < 1 | 1 to 10 | < 1 | – | CC[C@@H]1C(=O)N(C)c2cnc(-n3ccnc3-c3cccc(Br)c3)nc2N1C(C)C [Example 220, (R)-2-(2-(3-bromophenyl)-1H-imidazol-1-yl)-7-ethyl-8-isopropyl-5-methyl-7,8-dihydropteridin-6(5H)-one]
5 | 1 to 10 | 10 to 50 | 10 to 50 | – | CC[C@@]12CCCN1c1nc(-c3cncnc3-c3ccccc3)ncc1N(C)C2=O [Example 222, (S)-6a-ethyl-5-methyl-2-(4-phenylpyrimidin-5-yl)-6a,7,8,9-tetrahydropyrrolo[2,1-h]pteridin-6(5H)-one]
6 | 1 to 10 | > 50 | 1 to 10 | – | CC[C@@H]1C(=O)N(C)c2cnc(N3CCN(c4cnccn4)CC3)nc2N1C1CCCC1 [Example 223, (R)-8-cyclopentyl-7-ethyl-5-methyl-2-(4-(pyrazin-2-yl)piperazin-1-yl)-7,8-dihydropteridin-6(5H)-one]
7 | < 1 | 10 to 50 | 1 to 10 | – | CC[C@@H]1C(=O)N(C)c2cnc(-n3ccnc3-c3ccc(F)cn3)nc2N1C1CCC1 [Example 224, (R)-8-cyclobutyl-7-ethyl-2-(2-(5-fluoropyridin-2-yl)-1H-imidazol-1-yl)-5-methyl-7,8-dihydropteridin-6(5H)-one]
8 | < 1 | 10 to 50 | 1 to 10 | – | CC[C@@]12CCCN1c1nc(-n3ccnc3-c3cccc(F)c3)ncc1N(C)C2=O [Example 225, (S)-6a-ethyl-2-(2-(3-fluorophenyl)-1H-imidazol-1-yl)-5-methyl-6a,7,8,9-tetrahydropyrrolo[2,1-h]pteridin-6(5H)-one]
9 | < 1 | 10 to 50 | 10 to 50 | – | CC[C@@]12CCCN1c1nc(-n3ccnc3-c3cc(F)cc(F)c3)ncc1N(C)C2=O [Example 226, (S)-2-(2-(3,5-difluorophenyl)-1H-imidazol-1-yl)-6a-ethyl-5-methyl-6a,7,8,9-tetrahydropyrrolo[2,1-h]pteridin-6(5H)-one]
10 | < 1 | 10 to 50 | 10 to 50 | – | CC[C@@H]1C(=O)N(C)c2cnc(-n3ccnc3-c3ccc(C#N)cc3)nc2N1C(C)C [Example 227, (R)-4-(1-(7-ethyl-8-isopropyl-5-methyl-6-oxo-5,6,7,8-tetrahydropteridin-2-yl)-1H-imidazol-2-yl)benzonitrile]
11 | < 1 | 10 to 50 | 1 to 10 | – | CC[C@@H]1C(=O)N(C)c2cnc(-n3ccnc3-c3cccc(C#N)c3)nc2N1C(C)C [Example 228, (R)-3-(1-(7-ethyl-8-isopropyl-5-methyl-6-oxo-5,6,7,8-tetrahydropteridin-2-yl)-1H-imidazol-2-yl)benzonitrile]
12 | < 1 | 1 to 10 | 1 to 10 | – | CC[C@@H]1C(=O)N(C)c2cnc(-n3ccnc3-c3ccc(F)c(F)c3)nc2N1C1CC(F)C1 (stereo partly drawn) [Example 229, (R)-2-(2-(3,4-difluorophenyl)-1H-imidazol-1-yl)-7-ethyl-8-(3-fluorocyclobutyl)-5-methyl-7,8-dihydropteridin-6(5H)-one]
13 | < 1 | 1 to 10 | 1 to 10 | – | CC[C@@H]1C(=O)N(C)c2cnc(-n3ccnc3C3=CCCC3)nc2N1C1CCCC1 [Example 231, (R)-2-(2-cyclopentenyl-1H-imidazol-1-yl)-8-cyclopentyl-7-ethyl-5-methyl-7,8-dihydropteridin-6(5H)-one]
14 | < 1 | 1 to 10 | 1 to 10 | – | CC[C@@H]1C(=O)N(C)c2cnc(-n3ccnc3-c3ccc(F)c(Cl)c3)nc2N1C1CCOC1 (stereo partly drawn) [Example 232, (7R)-2-(2-(3-chloro-4-fluorophenyl)-1H-imidazol-1-yl)-7-ethyl-5-methyl-8-(tetrahydrofuran-3-yl)-7,8-dihydropteridin-6(5H)-one]
15 | < 1 | 10 to 50 | 1 to 10 | – | CC[C@@H]1C(=O)N(C)c2cnc(-n3ccnc3-c3ccncc3)nc2N1CCC(F)(F)F [Example 234, (R)-7-ethyl-5-methyl-2-(2-(pyridin-4-yl)-1H-imidazol-1-yl)-8-(3,3,3-trifluoropropyl)-7,8-dihydropteridin-6(5H)-one]
16 | 10 to 50 | 10 to 50 | > 50 | – | CC[C@@]12CCCN1c1nc(-n3ncnc3C#Cc3ccccc3)ncc1N(C)C2=O [Example 235, (S)-6a-ethyl-5-methyl-2-(5-(phenylethynyl)-1H-1,2,4-triazol-1-yl)-6a,7,8,9-tetrahydropyrrolo[2,1-h]pteridin-6(5H)-one]
17 | < 1 | 10 to 50 | 1 to 10 | – | CC[C@@]12CCCN1c1nc(-n3ccnc3-c3cccc(Cl)c3)ncc1N(C)C2=O [Example 236, (S)-2-(2-(3-chlorophenyl)-1H-imidazol-1-yl)-6a-ethyl-5-methyl-6a,7,8,9-tetrahydropyrrolo[2,1-h]pteridin-6(5H)-one]
18 | < 1 | 1 to 10 | < 1 | – | CC[C@@H]1C(=O)N(C)c2cnc(-n3ccnc3-c3ccc(F)c(F)c3)nc2N1C1CCC(F)(F)C1 (stereo partly drawn) [Example 237, (7R)-8-(3,3-difluorocyclopentyl)-2-(2-(3,4-difluorophenyl)-1H-imidazol-1-yl)-7-ethyl-5-methyl-7,8-dihydropteridin-6(5H)-one]
19 | < 1 | > 50 | 10 to 50 | – | CC[C@@]12CCCN1c1nc(-n3ccnc3-c3cnc4ccccc4c3)ncc1N(C)C2=O [Example 241, (S)-6a-ethyl-5-methyl-2-(2-(quinolin-3-yl)-1H-imidazol-1-yl)-6a,7,8,9-tetrahydropyrrolo[2,1-h]pteridin-6(5H)-one]
20 | < 1 | > 50 | 10 to 50 | – | CC[C@@H]1C(=O)N(C)c2cnc(-n3ccnc3-c3ccc(F)cn3)nc2N1CCC(F)(F)F [Example 244, (R)-7-ethyl-2-(2-(5-fluoropyridin-2-yl)-1H-imidazol-1-yl)-5-methyl-8-(3,3,3-trifluoropropyl)-7,8-dihydropteridin-6(5H)-one]
21 | < 1 | > 50 | 1 to 10 | more active compound | CC[C@@]12CCCCN1c1nc(-n3ccnc3-c3cc(F)cc(F)c3)ncc1N(C)C2=O [Example 249, (S)-2-(2-(3,5-difluorophenyl)-1H-imidazol-1-yl)-6a-ethyl-5-methyl-7,8,9,10-tetrahydro-5H-pyrido[2,1-h]pteridin-6(6aH)-one]
22 | > 50 | > 50 | > 50 | – | CC[C@]12CCCCN1c1nc(-n3ccnc3-c3cc(F)cc(F)c3)ncc1N(C)C2=O [Example 250, (R)-2-(2-(3,5-difluorophenyl)-1H-imidazol-1-yl)-6a-ethyl-5-methyl-7,8,9,10-tetrahydro-5H-pyrido[2,1-h]pteridin-6(6aH)-one]
23 | < 1 | > 50 | 10 to 50 | – | CC[C@@]12CCCN1c1nc(-n3ccnc3-c3cccc(OC(F)(F)F)c3)ncc1N(C)C2=O [Example 251, (S)-6a-ethyl-5-methyl-2-(2-(3-(trifluoromethoxy)phenyl)-1H-imidazol-1-yl)-6a,7,8,9-tetrahydropyrrolo[2,1-h]pteridin-6(5H)-one]
24 | < 1 | 1 to 10 | < 1 | – | CC[C@@H]1C(=O)N(C)c2cnc(-n3ccnc3-c3cccc(F)c3F)nc2N1C1CCOC1 (stereo partly drawn) [Example 253, (7R)-2-(2-(2,3-difluorophenyl)-1H-imidazol-1-yl)-7-ethyl-5-methyl-8-(tetrahydrofuran-3-yl)-7,8-dihydropteridin-6(5H)-one]
25 | < 1 | 1 to 10 | < 1 | – | CC[C@@H]1C(=O)N(C)c2cnc(-n3ccnc3-c3cccc(F)c3F)nc2N1CCC(F)(F)F [Example 254, (R)-2-(2-(2,3-difluorophenyl)-1H-imidazol-1-yl)-7-ethyl-5-methyl-8-(3,3,3-trifluoropropyl)-7,8-dihydropteridin-6(5H)-one]
26 | 10 to 50 | > 50 | > 50 | – | CC[C@@]12CCC(=O)N1c1nc(-n3ccnc3-c3ccccc3)ncc1N(C)C2=O [Example 258, (S)-6a-ethyl-5-methyl-2-(2-phenyl-1H-imidazol-1-yl)-7,8-dihydropyrrolo[2,1-h]pteridine-6,9(5H,6aH)-dione]
27 | < 1 | 1 to 10 | 1 to 10 | more active compound | CC[C@@]12CCCCN1c1nc(-n3ccnc3-c3cccc(F)c3F)ncc1N(C)C2=O [Example 259, (S)-2-(2-(2,3-difluorophenyl)-1H-imidazol-1-yl)-6a-ethyl-5-methyl-7,8,9,10-tetrahydro-5H-pyrido[2,1-h]pteridin-6(6aH)-one]
